# From ChEMBL document CHEMBL3739267, “Synthesis of 2,6-dicarbethoxy-3,5-diaryltetrahydro-1,4-thiazine-1,1-dioxide derivatives as potent anticonvulsant agents” (Eur J Med Chem, 2015)
# Calls of active or inactive are those of the source. No cut-off for these calls is given here.
# What was measured:
# Mus musculus [1] = assay: Anticonvulsant activity in ip dosed Swiss albino mouse assessed as reduction of maximal electroshock-induced seizure after 0.5 hrs; format: functional; conditions: read-out: MED
# Mus musculus [2] = assay: Anticonvulsant activity in ip dosed Swiss albino mouse assessed as reduction of maximal electroshock-induced seizure after 4 hrs; format: functional; conditions: read-out: MED
# Mus musculus [3] = assay: Anticonvulsant activity in ip dosed Swiss albino mouse assessed as reduction of subcutaneous pentylenetetrazole-induced seizure after 0.5 hrs; format: functional; conditions: read-out: MED
# Mus musculus [4] = assay: Anticonvulsant activity in ip dosed Swiss albino mouse assessed as reduction of subcutaneous pentylenetetrazole-induced seizure after 4 hrs; format: functional; conditions: read-out: MED
# [5] = (§1) Neurotoxicity in ip dosed Swiss albino mouse assessed as inability of animal to maintain equilibrium on rod after 0.5 hrs by rotarod test; format: toxicity, organism-based; conditions: Swiss albino, in vivo
# Mus musculus [6] = assay: Neurotoxicity in Swiss albino mouse assessed as inability of animal to maintain equilibrium on rod at 300 mg/kg, ip after 0.5 hrs by rotarod test; format: toxicity, organism-based; conditions: in vivo
# Mus musculus [7] = assay: Neurotoxicity in Swiss albino mouse assessed as inability of animal to maintain equilibrium on rod at 300 mg/kg, ip after 4 hrs by rotarod test; format: toxicity, organism-based; conditions: in vivo
# Mus musculus [8] = assay: Anticonvulsant activity in ip dosed Swiss albino mouse assessed as reduction of maximal electroshock-induced seizure; format: functional
# Mus musculus [9] = assay: Anticonvulsant activity in ip dosed Swiss albino mouse assessed as reduction of subcutaneous pentylenetetrazole-induced seizure; format: functional
# Mus musculus [10] = assay: Protective index, ratio of TD50 for ip dosed Swiss albino mouse assessed as inability of animal to maintain equilibrium on rod after 0.5 hrs by rotarod test to ED50 for Swiss albino mouse assessed as reduction of maximal electroshock-induced seizure; format: functional
# Mus musculus [11] = assay: Protective index, ratio of TD50 for ip dosed Swiss albino mouse assessed as inability of animal to maintain equilibrium on rod after 0.5 hrs by rotarod test to ED50 for Swiss albino mouse assessed as subcutaneous pentylenetetrazole-induced seizure; format: functional
# Mus musculus [12] = assay: Anticonvulsant activity in Swiss albino mouse assessed as reduction of subcutaneous pentylenetetrazole-induced seizure at 300 mg/kg, ip after 0.5 hrs; format: functional, organism-based
# Mus musculus [13] = assay: Anticonvulsant activity in Swiss albino mouse assessed as reduction of subcutaneous pentylenetetrazole-induced seizure at 300 mg/kg, ip after 4 hrs; format: functional, organism-based
# Mus musculus [14] = assay: Neurotoxicity in ip dosed Swiss albino mouse assessed as inability of animal to maintain equilibrium on rod after 4 hrs by rotarod test; format: toxicity, organism-based; conditions: in vivo
# Mus musculus [15] = assay: Anticonvulsant activity in Swiss albino mouse assessed as reduction of maximal electroshock-induced seizure at 300 mg/kg, ip after 0.5 hrs; format: functional, organism-based
# Mus musculus [16] = assay: Anticonvulsant activity in Swiss albino mouse assessed as reduction of maximal electroshock-induced seizure at 300 mg/kg, ip after 4 hrs; format: functional, organism-based
# Mus musculus [17] = assay: as §1; format: toxicity, organism-based; conditions: in vivo, 0.5 h
smiles,measurement,setting,value
CCOC(=O)C1C(c2cc3ccccc3nc2Cl)NC(c2cc3ccccc3nc2Cl)C(C(=O)OCC)S1(=O)=O (stereo not drawn),minimal effective dose,Mus musculus [1],30 mg/kg
same,minimal effective dose,Mus musculus [2],100 mg/kg
same,minimal effective dose,Mus musculus [3],300 mg/kg
same,minimal effective dose,Mus musculus [4],300 mg/kg
same,TD50 at 0.5 h,[5],128 mg/kg
same,Activity,Mus musculus [6],Non-toxic
same,Activity,Mus musculus [7],Non-toxic
same,ED50,Mus musculus [8],12.4 mg/kg
same,ED50,Mus musculus [9],62.7 mg/kg
same,Ratio TD50/ED50,Mus musculus [10],10.3
same,Ratio TD50/ED50,Mus musculus [11],2
CCOC(=O)C1C(c2cccnc2)NC(c2cccnc2)C(C(=O)OCC)S1(=O)=O (stereo not drawn),minimal effective dose,Mus musculus [1],300 mg/kg
same,minimal effective dose,Mus musculus [2],300 mg/kg
same,Activity,Mus musculus [12],inactive
same,Activity,Mus musculus [13],inactive
same,MTC,Mus musculus [14],300 mg/kg
same,Activity,Mus musculus [6],Non-toxic
CCOC(=O)C1C(c2ccccc2Cl)NC(c2ccccc2Cl)C(C(=O)OCC)S1(=O)=O (stereo not drawn),minimal effective dose,Mus musculus [1],100 mg/kg
same,minimal effective dose,Mus musculus [2],300 mg/kg
same,minimal effective dose,Mus musculus [3],300 mg/kg
same,Activity,Mus musculus [13],inactive
same,Activity,Mus musculus [6],Non-toxic
same,Activity,Mus musculus [7],Non-toxic
CCOC(=O)C1C(c2ccc(OC)cc2)NC(c2ccc(OC)cc2)C(C(=O)OCC)S1(=O)=O (stereo not drawn),minimal effective dose,Mus musculus [1],100 mg/kg
same,minimal effective dose,Mus musculus [2],300 mg/kg
same,minimal effective dose,Mus musculus [3],300 mg/kg
same,Activity,Mus musculus [13],inactive
same,MTC,Mus musculus [14],300 mg/kg
same,Activity,Mus musculus [6],Non-toxic
CCC1(c2ccccc2)C(=O)NC(=O)NC1=O [PHENOBARBITAL],TD50 at 0.5 h,[5],68.2 mg/kg
same,ED50,Mus musculus [8],20.6 mg/kg
same,ED50,Mus musculus [9],13.2 mg/kg
CCOC(=O)C1C(c2ccc(Cl)cc2)NC(c2ccc(Cl)cc2)C(C(=O)OCC)S1(=O)=O (stereo not drawn),minimal effective dose,Mus musculus [1],30 mg/kg
same,minimal effective dose,Mus musculus [2],30 mg/kg
same,minimal effective dose,Mus musculus [3],100 mg/kg
same,minimal effective dose,Mus musculus [4],300 mg/kg
same,TD50 at 0.5 h,[5],289 mg/kg
same,Activity,Mus musculus [6],Non-toxic
same,Activity,Mus musculus [7],Non-toxic
same,ED50,Mus musculus [8],10.2 mg/kg
same,ED50,Mus musculus [9],50.5 mg/kg
same,Ratio TD50/ED50,Mus musculus [10],28.3
same,Ratio TD50/ED50,Mus musculus [11],5.7
CCOC(=O)C1C(c2ccc([N+](=O)[O-])cc2)NC(c2ccc([N+](=O)[O-])cc2)C(C(=O)OCC)S1(=O)=O (stereo not drawn),minimal effective dose,Mus musculus [1],30 mg/kg
same,minimal effective dose,Mus musculus [2],100 mg/kg
same,minimal effective dose,Mus musculus [3],300 mg/kg
same,minimal effective dose,Mus musculus [4],300 mg/kg
same,TD50 at 0.5 h,[5],190 mg/kg
same,Activity,Mus musculus [6],Non-toxic
same,Activity,Mus musculus [7],Non-toxic
same,ED50,Mus musculus [8],11.4 mg/kg
same,ED50,Mus musculus [9],73.2 mg/kg
same,Ratio TD50/ED50,Mus musculus [10],16.7
same,Ratio TD50/ED50,Mus musculus [11],2.6
CCOC(=O)C1C(c2cc3ccccc3[nH]2)NC(c2cc3ccccc3[nH]2)C(C(=O)OCC)S1(=O)=O (stereo not drawn),minimal effective dose,Mus musculus [1],30 mg/kg
same,minimal effective dose,Mus musculus [2],100 mg/kg
same,minimal effective dose,Mus musculus [3],300 mg/kg
same,minimal effective dose,Mus musculus [4],300 mg/kg
same,TD50 at 0.5 h,[5],119 mg/kg
same,Activity,Mus musculus [6],Non-toxic
same,Activity,Mus musculus [7],Non-toxic
same,ED50,Mus musculus [8],13.2 mg/kg
same,ED50,Mus musculus [9],56.8 mg/kg
same,Ratio TD50/ED50,Mus musculus [10],9
same,Ratio TD50/ED50,Mus musculus [11],2.1
CCOC(=O)C1C(c2ccccn2)NC(c2ccccn2)C(C(=O)OCC)S1(=O)=O (stereo not drawn),minimal effective dose,Mus musculus [1],300 mg/kg
same,minimal effective dose,Mus musculus [2],300 mg/kg
same,Activity,Mus musculus [12],inactive
same,Activity,Mus musculus [13],inactive
same,MTC,Mus musculus [14],300 mg/kg
same,Activity,Mus musculus [6],Non-toxic
CCOC(=O)C1C(c2cccs2)NC(c2cccs2)C(C(=O)OCC)S1(=O)=O (stereo not drawn),minimal effective dose,Mus musculus [1],100 mg/kg
same,minimal effective dose,Mus musculus [2],300 mg/kg
same,minimal effective dose,Mus musculus [3],300 mg/kg
same,Activity,Mus musculus [13],inactive
same,MTC,Mus musculus [14],300 mg/kg
same,Activity,Mus musculus [6],Non-toxic
CCOC(=O)C1C(c2ccco2)NC(c2ccco2)C(C(=O)OCC)S1(=O)=O (stereo not drawn),minimal effective dose,Mus musculus [1],300 mg/kg
same,minimal effective dose,Mus musculus [2],300 mg/kg
same,Activity,Mus musculus [12],inactive
same,Activity,Mus musculus [13],inactive
same,MTC,Mus musculus [14],300 mg/kg
same,Activity,Mus musculus [6],Non-toxic
CCC1(C)CC(=O)NC1=O (stereo not drawn) [ETHOSUXIMIDE],Activity,Mus musculus [15],inactive
same,Activity,Mus musculus [16],inactive
same,minimal effective dose,Mus musculus [3],100 mg/kg
same,minimal effective dose,Mus musculus [4],300 mg/kg
same,Activity,Mus musculus [6],Non-toxic
same,Activity,Mus musculus [7],Non-toxic
CCOC(=O)C1C(c2cccc(Cl)c2)NC(c2cccc(Cl)c2)C(C(=O)OCC)S1(=O)=O (stereo not drawn),minimal effective dose,Mus musculus [1],100 mg/kg
same,minimal effective dose,Mus musculus [2],300 mg/kg
same,minimal effective dose,Mus musculus [3],300 mg/kg
same,Activity,Mus musculus [13],inactive
same,MTC,Mus musculus [17],300 mg/kg
same,Activity,Mus musculus [7],Non-toxic
CCOC(=O)C1C(c2ccc(OC)c(OC)c2)NC(c2ccc(OC)c(OC)c2)C(C(=O)OCC)S1(=O)=O (stereo not drawn),minimal effective dose,Mus musculus [1],100 mg/kg
same,minimal effective dose,Mus musculus [2],300 mg/kg
same,minimal effective dose,Mus musculus [3],300 mg/kg
same,Activity,Mus musculus [13],inactive
same,MTC,Mus musculus [14],300 mg/kg
same,Activity,Mus musculus [6],Non-toxic
CCOC(=O)C1C(c2ccc(C)cc2)NC(c2ccc(C)cc2)C(C(=O)OCC)S1(=O)=O (stereo not drawn),minimal effective dose,Mus musculus [1],30 mg/kg
same,minimal effective dose,Mus musculus [2],100 mg/kg
same,minimal effective dose,Mus musculus [3],300 mg/kg
same,minimal effective dose,Mus musculus [4],300 mg/kg
same,TD50 at 0.5 h,[5],227 mg/kg
same,Activity,Mus musculus [6],Non-toxic
same,Activity,Mus musculus [7],Non-toxic
same,ED50,Mus musculus [8],14.4 mg/kg
same,ED50,Mus musculus [9],90.2 mg/kg
same,Ratio TD50/ED50,Mus musculus [10],15.7
same,Ratio TD50/ED50,Mus musculus [11],2.5
CCOC(=O)C1C(c2ccccc2)NC(c2ccccc2)C(C(=O)OCC)S1(=O)=O (stereo not drawn),minimal effective dose,Mus musculus [1],30 mg/kg
same,minimal effective dose,Mus musculus [2],100 mg/kg
same,minimal effective dose,Mus musculus [3],300 mg/kg
same,minimal effective dose,Mus musculus [4],300 mg/kg
same,TD50 at 0.5 h,[5],131 mg/kg
same,Activity,Mus musculus [6],Non-toxic
same,Activity,Mus musculus [7],Non-toxic
same,ED50,Mus musculus [8],14.8 mg/kg
same,ED50,Mus musculus [9],58.6 mg/kg
same,Ratio TD50/ED50,Mus musculus [10],8.8
same,Ratio TD50/ED50,Mus musculus [11],2.2
CCOC(=O)C1C(c2ccc3c(c2)OCO3)NC(c2ccc3c(c2)OCO3)C(C(=O)OCC)S1(=O)=O (stereo not drawn),minimal effective dose,Mus musculus [1],30 mg/kg
same,minimal effective dose,Mus musculus [2],100 mg/kg
same,minimal effective dose,Mus musculus [3],300 mg/kg
same,minimal effective dose,Mus musculus [4],300 mg/kg
same,TD50 at 0.5 h,[5],248 mg/kg
same,Activity,Mus musculus [6],Non-toxic
same,Activity,Mus musculus [7],Non-toxic
same,ED50,Mus musculus [8],27.4 mg/kg
same,ED50,Mus musculus [9],220 mg/kg
same,Ratio TD50/ED50,Mus musculus [10],9
same,Ratio TD50/ED50,Mus musculus [11],1.1
CCOC(=O)C1C(c2ccc[nH]2)NC(c2ccc[nH]2)C(C(=O)OCC)S1(=O)=O (stereo not drawn),minimal effective dose,Mus musculus [1],100 mg/kg
same,minimal effective dose,Mus musculus [2],300 mg/kg
same,minimal effective dose,Mus musculus [3],300 mg/kg
same,Activity,Mus musculus [13],inactive
same,MTC,Mus musculus [17],300 mg/kg
same,Activity,Mus musculus [7],Non-toxic
O=C1NC(=O)C(c2ccccc2)(c2ccccc2)N1 [PHENYTOIN],minimal effective dose,Mus musculus [1],30 mg/kg
same,minimal effective dose,Mus musculus [2],30 mg/kg
same,minimal effective dose,Mus musculus [3],100 mg/kg
same,Activity,Mus musculus [12],inactive
same,Activity,Mus musculus [13],inactive
same,MTC,Mus musculus [17],100 mg/kg
same,MTC,Mus musculus [14],100 mg/kg
same,ED50,Mus musculus [8],9.8 mg/kg
same,ED50,Mus musculus [9],> 300 mg/kg
CCCC(CCC)C(=O)O [VALPROIC ACID],ED50,Mus musculus [9],149 mg/kg
NC(=O)N1c2ccccc2C=Cc2ccccc21 [CARBAMAZEPINE],ED50,Mus musculus [8],11.4 mg/kg
same,ED50,Mus musculus [9],> 100 mg/kg
CCOC(=O)C1C(c2ccsc2)NC(c2ccsc2)C(C(=O)OCC)S1(=O)=O (stereo not drawn),minimal effective dose,Mus musculus [1],100 mg/kg
same,minimal effective dose,Mus musculus [2],300 mg/kg
same,minimal effective dose,Mus musculus [3],300 mg/kg
same,Activity,Mus musculus [13],inactive
same,MTC,Mus musculus [14],300 mg/kg
same,Activity,Mus musculus [6],Non-toxic
